Patent publication US12617784B2, “AKT inhibitor” (Nanjing Chia Tai Tianqing Pharmaceutical Co., Ltd., priority 2019, dated 2026)
Where a name gives a salt, the structure may show the parent alone. Read-outs that look alike come from different tables or passages of the source.

Columns and labels:
AKT1 = AKT1 (Homo sapiens, UniProt P31749); assay: In vitro enzyme activity test (HTRF kinEASE TK), AKT1; assay type: biochemical; settings: ATP 2 μM, enzyme 0.6 ng/well, reaction 50 min
Description: (§1) Experimental Procedure 2.1 Preparation of Reagents
(§2) 1 mL 1× Kinase Reaction Buffer of Kinase AKT1, AKT2 and AKT3 contain 200 μL 5× Kinase Reaction Buffer, 5 μL 1 M MgCl2, 1 μL 1 M DTT and 794 μL ultrapure water.
(§3) In addition to the control wells, 4 μL of the diluted compound working solutions were added to all reaction wells.
(§4) b) 2 μL of the previously prepared TK-biotin substrate solution was added to all reaction wells.
(§5) c) 2 μL of the previously prepared enzyme solution was added to all reaction wells, except the negative wells. The volume of the negative well was filled with 2 μL of enzyme corresponding to 1× kinase reaction buffer. The plate was sealed with sealing film. After mixing, the plate was incubated at room temperature for 10 min to allow the compound and enzyme to fully combined.
(§6) d) 2 μL of ATP solution was added to all reaction wells to start the kinase reaction.
(§7) e) The test solution was prepared 5 min before the end of the kinase reaction.
(§8) f) After the kinase reaction was completed, 5 μL of diluted streptavidin-XL665 were added to all reaction wells, and immediately the diluted europium-labeled tyrosine kinase substrate antibody detection solution was added after mixing.
(§9) g) The plate was sealed and mixed well. […] The inhibition rate of each well was calculated through the fully active wells and the background signal wells, taking the average value in case of multiple wells. Meanwhile, the professional drawing analysis software PRISM 6.0 was used to fit the half maximal inhibitory concentration (IC50) of each test compound.

AKT2 = target: T1, AKT2 (Homo sapiens, UniProt P31751); assay: In vitro enzyme activity test (HTRF kinEASE TK), AKT2; assay type: biochemical; settings: ATP 20 μM, enzyme 0.1 ng/well, reaction 50 min
T1 construct: purchased Carna 01-102
Description: as §1, §2, §3, §4, §5, §6, §7, §8, §9

AKT3 = target: T2, AKT3 (Homo sapiens, UniProt Q9Y243); assay: In vitro enzyme activity test (HTRF kinEASE TK), AKT3; assay type: biochemical; settings: enzyme 0.3 ng/well, reaction 50 min
T2 construct: purchased Invitrogen PV3185
Description: as §1, §2, §3, §4, §5, §6, §7, §8, §9

[1] = Pharmacokinetic evaluation in mice after intragastric administration; assay type: in vivo, mouse; settings: po
Description: 400 μl of stock solution with a concentration of 10 mg/mL was accurately pipetted into a glass bottle, and 3.6 mL of mixed menstruum was added. The ratio of the menstruum in the final formulation is DMSO:mixed menstruum (v/v)=10:90. After vortexing (or sonication) and evenly distributed, 4 mL of a dosing solution with a concentration of 1 mg mL^-1 for each compound was obtained. Formulation of Isomer 2 of the compound of Example 15: Menstruum: DMSO: PEG400: ultrapure water=5:20:75 (v/v/v) 5.37 mg of test sample Isomer 2 of the compound of Example 15 was weighed into a glass bottle; 0.269 mL of DMSO was added, vortexed to completely dissolve the solid material; 1.074 mL of PEG400 was added, vortexed, and mixed; 4.028 mL of ultrapure water was added, vortexed and mixed to obtain a colorless solution with a concentration of 1 mg·mL^-1. Experimental animal: mouse, strain ICR, source: Weitong Lihua Laboratory Animal Technology Co., Ltd., age: 6-10 weeks, male. [table] The experimental animals were fed in the animal room of Suzhou Shengsu New Pharmaceutical Development Co., Ltd. The animal room was well ventilated and equipped with air conditioning. The temperature was maintained at 20-25° C. and the humidity was maintained at 40%-70%. Bright and dark lighting for 12 hours each, and the experimental animals ate and drank freely. After normal feeding for at least 5 days, mice with good physical signs were selected for this experiment after veterinary inspection. Each mouse was marked with a tag on its tail. On the day before the experiment, the mice were fasted overnight and were allowed to drink freely, and were fed 4 hours after the administration. […] After the administration, about 100 μL of blood was collected from the orbit of the mouse at each time point and placed in an EDTA-K2 anticoagulation tube. […] An LC-MS/MS analytical method for determining the concentration of compounds in mouse plasma was established and used to determine the concentration of compounds in the biological samples obtained in this experiment. The non-compartmental model in Pharsight Phoenix 7.0 was used to calculate the pharmacokinetic parameters.

[2] = male ICR mouse, 10 mg·kg−1 intragastrically, single dose, fasted, plasma, read-out: AUC
[3] = male ICR mouse, 10 mg·kg−1 intragastrically, single dose, fasted, plasma, read-out: Cmax
[4] = male ICR mouse, 10 mg·kg−1 intragastrically, single dose, fasted, plasma, read-out: Tmax
[5] = male ICR mouse, 10 mg·kg−1 intragastrically, single dose, fasted, plasma
[6] = male, ICR, mouse, in vivo, 10 mg/kg

T2 sequence (Q9Y243 whole entry): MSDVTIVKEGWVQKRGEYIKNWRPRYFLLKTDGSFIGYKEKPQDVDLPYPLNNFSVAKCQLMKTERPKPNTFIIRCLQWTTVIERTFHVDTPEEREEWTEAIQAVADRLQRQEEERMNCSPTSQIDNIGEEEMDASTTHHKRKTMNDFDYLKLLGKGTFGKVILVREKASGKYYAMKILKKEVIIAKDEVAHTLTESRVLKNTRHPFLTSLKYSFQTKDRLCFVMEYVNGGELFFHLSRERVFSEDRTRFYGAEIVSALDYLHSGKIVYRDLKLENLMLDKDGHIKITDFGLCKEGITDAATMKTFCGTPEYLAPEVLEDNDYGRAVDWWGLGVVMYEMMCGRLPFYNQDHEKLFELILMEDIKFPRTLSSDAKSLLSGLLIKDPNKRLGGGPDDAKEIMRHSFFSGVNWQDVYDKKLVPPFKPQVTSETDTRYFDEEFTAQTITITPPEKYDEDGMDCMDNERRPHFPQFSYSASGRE
T1 sequence (P31751 whole entry): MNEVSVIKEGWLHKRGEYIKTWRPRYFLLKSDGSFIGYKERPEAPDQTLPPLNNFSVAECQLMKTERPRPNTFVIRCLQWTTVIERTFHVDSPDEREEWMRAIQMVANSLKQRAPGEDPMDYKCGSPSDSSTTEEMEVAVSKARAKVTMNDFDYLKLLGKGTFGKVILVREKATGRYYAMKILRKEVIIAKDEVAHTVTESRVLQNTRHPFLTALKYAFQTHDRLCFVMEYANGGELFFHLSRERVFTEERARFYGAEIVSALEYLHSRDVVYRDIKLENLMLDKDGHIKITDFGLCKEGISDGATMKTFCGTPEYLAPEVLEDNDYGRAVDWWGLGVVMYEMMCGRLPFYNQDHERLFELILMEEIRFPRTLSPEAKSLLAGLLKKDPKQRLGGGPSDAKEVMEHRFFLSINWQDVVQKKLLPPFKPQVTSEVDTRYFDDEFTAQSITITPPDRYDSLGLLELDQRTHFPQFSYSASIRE
Chain of AKT1 (P31749 whole entry): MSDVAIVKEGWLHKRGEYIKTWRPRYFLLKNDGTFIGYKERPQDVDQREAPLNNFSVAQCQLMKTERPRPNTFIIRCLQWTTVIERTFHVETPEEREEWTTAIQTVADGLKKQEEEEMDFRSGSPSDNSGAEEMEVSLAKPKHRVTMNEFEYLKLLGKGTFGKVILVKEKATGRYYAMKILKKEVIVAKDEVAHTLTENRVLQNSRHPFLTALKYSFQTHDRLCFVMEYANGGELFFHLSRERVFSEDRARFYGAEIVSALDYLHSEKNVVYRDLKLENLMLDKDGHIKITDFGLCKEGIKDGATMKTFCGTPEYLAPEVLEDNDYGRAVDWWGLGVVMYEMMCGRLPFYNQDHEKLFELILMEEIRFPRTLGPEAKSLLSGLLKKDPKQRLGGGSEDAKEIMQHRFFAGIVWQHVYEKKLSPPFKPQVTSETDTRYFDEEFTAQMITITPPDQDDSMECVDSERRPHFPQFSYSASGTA

| Structure (SMILES) | IC50 (AKT1) [nM] | IC50 (AKT2) [nM] | IC50 (AKT3) [nM] | AUC [1, 2] [ng·h/mL] | Cmax [1, 3] [ng/mL] | Tmax [1, 4] [h] | half-life [1, 5] [h] | AUC [1, 6] [ng·h/mL] | Cmax [1, 6] [ng/mL] | Tmax [1, 6] [h] |
| --- | --- | --- | --- | --- | --- | --- | --- | --- | --- | --- |
| CC(C)NC[C@@H](C(=O)N1CCN(c2ncnc3c2N(C)CC(=O)N3)C[C@@H]1C)c1ccc(Cl)cc1 [Example 22, 4-((S)-4-((S)-2-(4-chlorophenyl)-3-(isopropylamino)propionyl)-3-methylpiperazin-1-yl)-5-methyl-5,8-dihydropteridine-7(6H)-one] | 39 | 334 | 0.56 |  |  |  |  |  |  |  |
| CC(C)NC[C@@H](C(=O)N1CCN(c2ncnc3c2[C@H](C)C[C@H]3O)CC1)c1ccc(Cl)cc1 [GDC-0068, reference compound] |  |  |  | 320 | 75.3 | 2 | 2.59 |  |  |  |
| CC(C)NC[C@@H](C(=O)N1CC2CCC(C1)N2c1ncnc2c1[C@@H](C(F)(F)F)CC(=O)N2)c1ccc(Cl)cc1 (single isomer, unassigned) [Example 25 Isomer 1] | 218 | ≥ 1000 | 20 |  |  |  |  |  |  |  |
| CCN1CC(=O)Nc2ncnc(N3CC4CCC(C3)N4C(=O)[C@H](CNC(C)C)c3ccc(Cl)cc3)c21 [Example 28] | 2.1 | 89 | 0.19 |  |  |  |  |  |  |  |
| C[C@@H]1CC(=O)Nc2ncnc(N3CCN(C(=O)C4(c5ccc(Cl)cc5)CCNCC4)CC3)c21 [Example 18, (R)-4-(4-(4-(4-chlorophenyl)piperidin-4-carbonyl)piperazin-1-yl)-5-methyl-5,8-dihydropyrido[2,3-d]pyrimidin-7(6H)-one formate] | 590 | 256 | 20.1 |  |  |  |  |  |  |  |
| CC(C)NC[C@@H](C(=O)N1C2CCC1CN(c1ncnc3c1N(C)CC(=O)N3)C2)c1ccc(Cl)cc1 [Example 21, 4-(8-((S)-2-(4-chlorophenyl)-3-(isopropylamino)propionyl)-3,8-diazabicyclo[3.2.1]octan-3-yl)-5-methyl-5,8-dihydropteridine-7(6H)-one formate] | 1.9 |  | 0.2 |  |  |  |  | 2290 | 681 | 1 |
| CC(C)NC[C@@H](C(=O)N1CCN(c2ncnc3c2[C@H](C)CC(=O)N3)[C@H]2C[C@H]21)c1ccc(Cl)cc1 (single isomer, unassigned) [Example 15 Isomer 2] |  |  |  | 2170 | 583 | 1 | 3.16 |  |  |  |
| CC(C)NC[C@@H](C(=O)N1C2CCC1CN(c1ncnc3c1[C@H](C)CC(=O)N3)C2)c1ccc(Cl)cc1 [Example 10, (R)-4-(8-((S)-2-(4-chlorophenyl)-3-(isopropylamino)propionyl)-3,8-diazabicyclo[3.2.1]octan-3-yl)-5-methyl-5,8-dihydropyrido[2,3-d]pyrimidin-7(6H)-one] | 2.8 |  | 0.21 | 911 | 321 | 0.5 | 1.67 |  |  |  |

Further lines, with some results ahead:

| IC50 (AKT1) [nM] | IC50 (AKT2) [nM] | IC50 (AKT3) [nM] | Structure (SMILES) | AUC [1, 2] [ng·h/mL] | Cmax [1, 3] [ng/mL] | Tmax [1, 4] [h] | half-life [1, 5] [h] | AUC [1, 6] [ng·h/mL] | Cmax [1, 6] [ng/mL] | Tmax [1, 6] [h] |
| --- | --- | --- | --- | --- | --- | --- | --- | --- | --- | --- |
| 77 | 800 | 22 | CC(C)NC[C@@H](C(=O)N1C2CCC1CN(c1ncnc3[nH]c(=O)c(=O)n(C)c13)C2)c1ccc(Cl)cc1 [Example 36, 4-(8-((S)-2-(4-chlorophenyl)-3-(isopropylamino)propionyl)-3,8-diazabicyclo[3.2.1]octan-3-yl)-5-methyl-5,8-dihydropteridine-6,7-dione] |  |  |  |  |  |  |  |
| 0.6 |  | 0.12 | CC(C)NC[C@@H](C(=O)N1CCN(c2ncnc3c2[C@H](C)OC(=O)N3)[C@H]2C[C@H]21)c1ccc(Cl)cc1 (single isomer, unassigned) [Example 34 Isomer 4] | 2580 | 497 | 4 |  |  |  |  |
| 151 | 756 | 43 | CC(C)NC[C@@H](C(=O)N1C2CCC1CN(c1ncnc3c1[C@H]1C[C@H]1C(=O)N3)C2)c1ccc(Cl)cc1 (single isomer, unassigned) [Example 39 Isomer 2] |  |  |  |  |  |  |  |
| 13 | 75 | 7.6 | CC(C)NC[C@@H](C(=O)N1C2CCC1CN(c1ncnc3c1[C@@H]1C[C@@H]1C(=O)N3)C2)c1ccc(Cl)cc1 (single isomer, unassigned) [Example 39 Isomer 1] |  |  |  |  |  |  |  |
